# Reference: US6737441B2, “Treatment of helicobacter with isothiocyanates” (priority 2000, dated 2004)
# Like-named read-outs stand apart in the source and are kept apart here.
# What was measured:
# [1] = in cell culture; cited from earlier work
# [2] = tested on: clarithromycin and/or metronidazole - intermediate or resistant strains of Helicobacter pylori; test: Bacteriostatic activity (MIC) against intermediate or resistant strains; type: cell-based
# [3] = tested on: amoxicillin/clarithromycin/metronidazole - susceptible strains of Helicobacter pylori; test: Bacteriostatic activity (MIC) against susceptible strains; type: cell-based
# [4] = Helicobacter pylori, H. pylori strain no 33, read-out: MIC
# [5] = Helicobacter pylori, H. pylori strain no 35, read-out: MIC
# [6] = Helicobacter pylori, H. pylori strain no 36, read-out: MIC
# [7] = Helicobacter pylori, H. pylori strain no 37, read-out: MIC
# [8] = Helicobacter pylori, H. pylori strain no 38, read-out: MIC
# [9] = Helicobacter pylori, H. pylori strain no 40, read-out: MIC
# [10] = Helicobacter pylori, H. pylori strain no 41, read-out: MIC
# [11] = Helicobacter pylori, H. pylori strain no 42, read-out: MIC
# [12] = Helicobacter pylori, H. pylori strain no 43, read-out: MIC
# [13] = Helicobacter pylori, H. pylori strain no 44, read-out: MIC
# [14] = Helicobacter pylori, H. pylori strain no 45, read-out: MIC
# [15] = Helicobacter pylori, H. pylori strain no 46, read-out: MIC
# [16] = Helicobacter pylori, H. pylori strain no 47, read-out: MIC
# [17] = Helicobacter pylori, H. pylori strain no 1, read-out: MIC
# [18] = Helicobacter pylori, H. pylori strain no 4, read-out: MIC
# [19] = Helicobacter pylori, H. pylori strain no 5, read-out: MIC
# [20] = Helicobacter pylori, H. pylori strain no 6, read-out: MIC
# [21] = Helicobacter pylori, H. pylori strain no 7, read-out: MIC
# [22] = Helicobacter pylori, H. pylori strain no 8, read-out: MIC
# [23] = Helicobacter pylori, H. pylori strain no 9, read-out: MIC
# [24] = Helicobacter pylori, H. pylori strain no 10, read-out: MIC
# [25] = Helicobacter pylori, H. pylori strain no 11, read-out: MIC
# [26] = Helicobacter pylori, H. pylori strain no 12, read-out: MIC
# [27] = Helicobacter pylori, H. pylori strain no 13, read-out: MIC
# [28] = Helicobacter pylori, H. pylori strain no 14, read-out: MIC
# [29] = Helicobacter pylori, H. pylori strain no 15, read-out: MIC
# [30] = Helicobacter pylori, H. pylori strain no 16, read-out: MIC
# [31] = Helicobacter pylori, H. pylori strain no 17, read-out: MIC
# [32] = Helicobacter pylori, H. pylori strain no 18, read-out: MIC
# [33] = Helicobacter pylori, H. pylori strain no 19, read-out: MIC
# [34] = Helicobacter pylori, H. pylori strain no 20, read-out: MIC
# [35] = Helicobacter pylori, H. pylori strain no 22, read-out: MIC
# [36] = Helicobacter pylori, H. pylori strain no 23, read-out: MIC
# [37] = Helicobacter pylori, H. pylori strain no 24, read-out: MIC
# [38] = Helicobacter pylori, H. pylori strain no 25, read-out: MIC
# [39] = Helicobacter pylori, H. pylori strain no 26, read-out: MIC
# [40] = Helicobacter pylori, H. pylori strain no 27, read-out: MIC
# [41] = Helicobacter pylori, H. pylori strain no 29, read-out: MIC
# [42] = Helicobacter pylori, H. pylori strain no 30, read-out: MIC
# [43] = Helicobacter pylori, H. pylori strain no 31, read-out: MIC
# [44] = Helicobacter pylori, H. pylori strain no 32, read-out: MIC
# [45] = Helicobacter pylori, H. pylori strain no 39, read-out: MIC
# [46] = Helicobacter pylori, H. pylori strain no 2, read-out: MIC
# [47] = Helicobacter pylori, H. pylori strain no 3, read-out: MIC
# [48] = Helicobacter pylori, H. pylori strain no 28, read-out: MIC
structure (smiles),measurement,setting,value
C[S+]([O-])CCCN=C=S (stereo not drawn) [iberin],activity as inducers relative to sulforaphane and sulforaphene,[1],less active
CSCCCN=C=S [iberverin],activity as inducers relative to sulforaphane and sulforaphene,[1],less active
CC[C@H]1OC(=O)[C@H](C)[C@@H](O[C@H]2C[C@@](C)(OC)[C@@H](O)[C@H](C)O2)[C@H](C)[C@@H](O[C@@H]2O[C@H](C)C[C@H](N(C)C)[C@H]2O)[C@](C)(OC)C[C@@H](C)C(=O)[C@H](C)[C@@H](O)[C@]1(C)O [Clarithromycin],MIC,[2]; H. pylori strain no 34,0.125 µg/mL
same,MIC,[2]; Helicobacter pylori,0.125 µg/mL
same,MIC,[2]; [4],0.06 µg/mL
same,MIC,[2]; [5],0.06 µg/mL
same,MIC,[2]; [6],0.06 µg/mL
same,MIC,[2]; [7],0.06 µg/mL
same,MIC,[2]; [8],0.5 µg/mL
same,MIC,[2]; [9],0.06 µg/mL
same,MIC,[2]; [10],4 µg/mL
same,MIC,[2]; [11],16 µg/mL
same,MIC,[2]; [12],16 µg/mL
same,MIC,[2]; [13],16 µg/mL
same,MIC,[2]; [14],8 µg/mL
same,MIC,[2]; [15],16 µg/mL
same,MIC,[2]; [16],16 µg/mL
same,MIC,[3]; H. pylori strain no 2,0.125 µg/mL
same,MIC,[3]; H. pylori strain no 28,0.125 µg/mL
same,MIC,[3]; Helicobacter pylori,0.125 µg/mL
same,MIC,[3]; [17],0.06 µg/mL
same,MIC,[3]; [18],0.06 µg/mL
same,MIC,[3]; [19],0.06 µg/mL
same,MIC,[3]; [20],0.06 µg/mL
same,MIC,[3]; [21],0.06 µg/mL
same,MIC,[3]; [22],0.06 µg/mL
same,MIC,[3]; [23],0.06 µg/mL
same,MIC,[3]; [24],0.06 µg/mL
same,MIC,[3]; [25],0.06 µg/mL
same,MIC,[3]; [26],0.06 µg/mL
same,MIC,[3]; [27],0.06 µg/mL
same,MIC,[3]; [28],0.06 µg/mL
same,MIC,[3]; [29],0.06 µg/mL
same,MIC,[3]; [30],0.06 µg/mL
same,MIC,[3]; [31],0.06 µg/mL
same,MIC,[3]; [32],0.06 µg/mL
same,MIC,[3]; [33],0.06 µg/mL
same,MIC,[3]; [34],0.06 µg/mL
same,MIC,"[3]; Helicobacter pylori, H. pylori strain no 21, read-out: MIC",0.06 µg/mL
same,MIC,[3]; [35],2 µg/mL
same,MIC,[3]; [36],0.06 µg/mL
same,MIC,[3]; [37],0.06 µg/mL
same,MIC,[3]; [38],0.06 µg/mL
same,MIC,[3]; [39],0.06 µg/mL
same,MIC,[3]; [40],0.06 µg/mL
same,MIC,[3]; [41],0.06 µg/mL
same,MIC,[3]; [42],0.06 µg/mL
same,MIC,[3]; [43],0.06 µg/mL
same,MIC,[3]; [44],0.06 µg/mL
CS(=O)(=O)CCCCN=C=S [erysolin],activity as inducers relative to sulforaphane and sulforaphene,[1],less active
CS(=O)(=O)CCCN=C=S [cheirolin],activity as inducers relative to sulforaphane and sulforaphene,[1],less active
CSCCCCCN=C=S [Bertoin],activity as inducers relative to sulforaphane and sulforaphene,[1],less active
Cc1ncc([N+](=O)[O-])n1CCO [Metronidazole],MIC,[2]; [4],32 µg/mL
same,MIC,"[2]; Helicobacter pylori, H. pylori strain no 34, read-out: MIC",256 µg/mL
same,MIC,[2]; [5],64 µg/mL
same,MIC,[2]; [6],64 µg/mL
same,MIC,[2]; [7],64 µg/mL
same,MIC,[2]; [8],64 µg/mL
same,MIC,[2]; [45],256 µg/mL
same,MIC,[2]; [9],64 µg/mL
same,MIC,[2]; [10],16 µg/mL
same,MIC,[2]; [11],1 µg/mL
same,MIC,[2]; [12],1 µg/mL
same,MIC,[2]; [13],0.5 µg/mL
same,MIC,[2]; [14],2 µg/mL
same,MIC,[2]; [15],32 µg/mL
same,MIC,[2]; [16],64 µg/mL
same,MIC,[3]; [17],1 µg/mL
same,MIC,[3]; [46],1 µg/mL
same,MIC,[3]; [47],1 µg/mL
same,MIC,[3]; [18],1 µg/mL
same,MIC,[3]; [19],4 µg/mL
same,MIC,[3]; [20],0.06 µg/mL
same,MIC,[3]; [21],0.06 µg/mL
same,MIC,[3]; [22],0.5 µg/mL
same,MIC,[3]; [23],1 µg/mL
same,MIC,[3]; [24],0.5 µg/mL
same,MIC,[3]; [25],0.25 µg/mL
same,MIC,[3]; [26],1 µg/mL
same,MIC,[3]; [27],1 µg/mL
same,MIC,[3]; [28],0.06 µg/mL
same,MIC,[3]; [29],0.06 µg/mL
same,MIC,[3]; [30],0.5 µg/mL
same,MIC,[3]; [31],1 µg/mL
same,MIC,[3]; [32],1 µg/mL
same,MIC,[3]; [36],0.06 µg/mL
same,MIC,[3]; [37],0.5 µg/mL
same,MIC,[3]; [38],1 µg/mL
same,MIC,[3]; [39],1 µg/mL
same,MIC,[3]; [40],0.06 µg/mL
same,MIC,[3]; [48],0.5 µg/mL
same,MIC,[3]; [41],1 µg/mL
same,MIC,[3]; [42],0.5 µg/mL
same,MIC,[3]; [43],0.25 µg/mL
same,MIC,[3]; [44],1 µg/mL
C[S+]([O-])CCCCCN=C=S (stereo not drawn) [alyssin],activity as inducers relative to sulforaphane and sulforaphene,[1],less active
CC1(C)S[C@@H]2[C@H](NC(=O)[C@H](N)c3ccc(O)cc3)C(=O)N2[C@H]1C(=O)O [Amoxicillin],MIC,[2]; [4],0.06 µg/mL
same,MIC,[2]; [5],0.06 µg/mL
same,MIC,[2]; [6],0.06 µg/mL
same,MIC,[2]; [7],0.06 µg/mL
same,MIC,[2]; [45],0.06 µg/mL
same,MIC,[2]; [9],0.06 µg/mL
same,MIC,[2]; [10],0.06 µg/mL
same,MIC,[2]; [11],0.06 µg/mL
same,MIC,[2]; [12],0.06 µg/mL
same,MIC,[2]; [13],0.06 µg/mL
same,MIC,[2]; [14],0.06 µg/mL
same,MIC,[2]; [15],0.06 µg/mL
same,MIC,[2]; [16],0.06 µg/mL
same,MIC,[3]; [17],0.06 µg/mL
same,MIC,[3]; [46],0.06 µg/mL
same,MIC,[3]; [47],0.06 µg/mL
same,MIC,[3]; [18],0.06 µg/mL
same,MIC,[3]; [19],0.06 µg/mL
same,MIC,[3]; [20],0.06 µg/mL
same,MIC,[3]; [21],0.06 µg/mL
same,MIC,[3]; [22],0.06 µg/mL
same,MIC,[3]; [24],0.06 µg/mL
same,MIC,[3]; [25],0.06 µg/mL
same,MIC,[3]; [26],0.06 µg/mL
same,MIC,[3]; [27],0.06 µg/mL
same,MIC,[3]; [28],0.06 µg/mL
same,MIC,[3]; [29],0.06 µg/mL
same,MIC,[3]; [30],0.06 µg/mL
same,MIC,[3]; [31],0.06 µg/mL
same,MIC,[3]; [32],0.06 µg/mL
same,MIC,[3]; [33],0.06 µg/mL
same,MIC,[3]; [34],0.06 µg/mL
same,MIC,[3]; [35],0.06 µg/mL
same,MIC,[3]; [36],0.06 µg/mL
same,MIC,[3]; [37],0.06 µg/mL
same,MIC,[3]; [38],0.06 µg/mL
same,MIC,[3]; [39],0.06 µg/mL
same,MIC,[3]; [40],0.06 µg/mL
same,MIC,[3]; [48],0.06 µg/mL
same,MIC,[3]; [42],0.06 µg/mL
same,MIC,[3]; [43],0.06 µg/mL
same,MIC,[3]; [44],0.06 µg/mL
